Measurements reported in patent publication US11534457B2, “Use of dextran sulfate” (priority 2017, dated 2022).

Test system: Mouse motor neurons (Aruna)
Assay: Gene expression array and pathway analysis, motor neurons
Assay type: cell-based
Method: For each cell line, n=8×25 cm^2 culture flasks were set up. Two flasks were harvested for each cell type on the day of treatment (24 hours after seeding). This represents the Day0 time point. From the remaining flasks, three flasks were treated with Control Medium and three were treated with Culture Medium (CM) containing LMW-DS to give a final concentration of 0.01 mg/ml. Cells from the treated flasks were collected after 48 hours. Therefore the collected data represent (a) untreated cells (Day0 Controls and Day2 Controls) and (b) cells treated with LMW-DS for 48 hours (Day2 LMW-DS treated).
25 cm^2 flasks were coated by adding 2 ml per flask of a solution of 50 μg/ml poly-d-lysine in Hank's balanced salt solution (HBSS) and incubating overnight at 37° C. in the dark. Flasks were washed with cell culture water and air-dried for 30 min in the dark. Flasks were coated by adding 1 ml per flask of a solution of 25 μg/ml laminin in phosphate-buffered saline (PBS) and incubating for 2 hour at 37° C. in the dark. The laminin flasks were washed with PBS three times before plating cells.
The culture medium was prepared according to Table 5.
Medium (see Table 5) was pre-warmed to 37° C. Cells were thawed in a 37° C. water bath for no longer than 2 min. 9 ml of media was gently added drop-wise. The cell suspension was mixed by inverting the tube carefully twice. The cells were counted with a Cellometer. The cells were centrifuged for 5 minutes at 200×g. Supernatant was removed (to the last 0.5 ml) and cells were gently resuspended by trituration. The cells from the 8 vials were mixed and distributed equally into the previously coated 25 cm^2 flasks (n=8). Cells were incubated at 37° C. with 5% CO2 for 24 hours before treatment.
LMW-DS was provided at a stock concentration of 20 mg/ml and was kept in a temperature monitored refrigerator at 4° C. A fresh […]LMW-DS stock (1.0 mg/ml) was prepared in sterile DMEM-F12. The concentrated drug stock was sterile filtered and added to the respective culture media (19.6 ml CM and 0.4 ml LMW-DS stock solution). The Control was made using 19.6 ml CM and 0.4 ml of DMEM-F12. LMW-DS and CM were added to the respective flasks (5 ml each) to reach the 0.01 mg/ml concentration of LMW-DS in each dish with a total of 10 ml CM each.
CM was aspirated into a clean and labelled 15 ml Falcon tube. The flasks (without culture medium) were placed into the −80° C. freezer for 30 minutes. The CM in the Falcon tubes were spun at 3000×g for 5 minutes. Supernatant was removed and the small pellet was re-suspended in 2.5 ml Trizol:Water (4:1) solution at room temperature (RT, […]).
Two aliquots of 1 ml lysate was removed from each sample and 200 μl of chloroform was added to each (0.2 ml of chloroform per 1 ml of TRIzol Reagent used during the cell lysis step) and the tube was shaken vigorously. Samples were stored at RT for 2-3 minutes and subsequently centrifuged at 12,000×g for 15 minutes at 4° C.
The expression data were downloaded into separate files for each cell line. The ‘Background corrected’ expression is the data from the “gProcessedSignal” of the arrays that is the result of the background signal extracted from the actual signal of the relevant probe. This is the most often used variable in array analysis. The background corrected signal was log 2 transformed for all samples for statistical analysis. To reduce the false discovery rate in the samples, the signals that were below ‘expression level’ were removed. The ‘below expression’ level was set at 5 for the log 2 transformed expression values.
Based on the expression pattern of the Control probes on each array it was decided to carry out Median Centering for all arrays before analysis to reduce the variability of the results. […]

Substance: low molecular weight dextran sulfate [LMW-DS]
- HtrA2 (0.01 mg/ml, 48 h): inhibition
- amyloid-β production (0.01 mg/ml, 48 h): preventing amyloid-β production
- apoptosis pathway (F in FIG. 18) (0.01 mg/ml, 48 h): preventing and inhibiting apoptosis
- cellular attachment from expression patterns (neurons) (0.01 mg/ml, 48 h): significant inhibition of cellular attachment
- fatty acid oxidation (0.01 mg/ml, 48 h): inhibiting fatty acid oxidation
- inhibition of glutamate production at baseline (0.01 mg/ml, 48 h): not affected
- level of H2O2 (0.01 mg/ml, 48 h): reduced
- number of genes differentially expressed, D0 control to the D2 LMW-DS treated samples (second statement) (0.01 mg/ml, 48 h): 425 genes
- number of genes differentially expressed, D0 control vs D2 LMW-DS treated (0.01 mg/ml, 48 h): 315 genes
- number of genes: abolished nutrient effect / no effect (0.01 mg/ml, 48 h): 177
- number of genes: abolished nutrient effect / significant downregulation (0.01 mg/ml, 48 h): 47
- number of genes: abolished nutrient effect / significant upregulation (0.01 mg/ml, 48 h): 40
- number of genes: abolished nutrient effect / total (0.01 mg/ml, 48 h): 264
- number of genes: enhanced response to nutrients / significant downregulation (0.01 mg/ml, 48 h): 36
- number of genes: enhanced response to nutrients / significant upregulation (0.01 mg/ml, 48 h): 103
- number of genes: enhanced response to nutrients / total (0.01 mg/ml, 48 h): 139
- number of genes: new effect induced by LMW-DS / no effect (0.01 mg/ml, 48 h): 108
- number of genes: new effect induced by LMW-DS / significant downregulation (0.01 mg/ml, 48 h): 375
- number of genes: new effect induced by LMW-DS / significant upregulation (0.01 mg/ml, 48 h): 71
- number of genes: new effect induced by LMW-DS / total (0.01 mg/ml, 48 h): 554
- number of genes: not different from control / significant downregulation (0.01 mg/ml, 48 h): 104
- number of genes: not different from control / significant upregulation (0.01 mg/ml, 48 h): 75
- number of genes: not different from control / total (0.01 mg/ml, 48 h): 179
- number of genes: total / no effect (0.01 mg/ml, 48 h): 285
- number of genes: total / significant downregulation (0.01 mg/ml, 48 h): 562
- number of genes: total / significant upregulation (0.01 mg/ml, 48 h): 289
- number of genes: total / total (0.01 mg/ml, 48 h): 1136
- upstream regulator AGT: activation z-score (D0 to LMW-DS treatment): 2.631
- upstream regulator AGT: predicted activation state relative D2 control (D0 to LMW-DS treatment): Activated
- upstream regulator BMP4: activation z-score (D0 to LMW-DS treatment): 0.972
- upstream regulator BMP4: predicted activation state relative D2 control (D0 to LMW-DS treatment): More activated relative to control
- upstream regulator BMP6: activation z-score (D0 to LMW-DS treatment): 0.13
- upstream regulator BMP6: predicted activation state relative D2 control (D0 to LMW-DS treatment): More activated relative to control
- upstream regulator BMP7: activation z-score (D0 to LMW-DS treatment): 1.092
- upstream regulator BMP7: predicted activation state relative D2 control (D0 to LMW-DS treatment): More activated relative to control
- upstream regulator INHA: activation z-score (D0 to LMW-DS treatment): 0.588
- upstream regulator INHA: predicted activation state relative D2 control (D0 to LMW-DS treatment): More activated relative to control
